Experimental findings from article PMC3165090 (Journal of medicinal chemistry, 2011) are described below.

The test system of one experiment is renal SN12C. Description: NCI screen cytotoxicity, renal SN12C. It counts as cell-based. The settings on record: Homo sapiens, 48 h, read-out: cytotoxicity (GI50) renal SN12C.
A further experiment concerns prostate DU-145. The experiment in a line: NCI screen cytotoxicity, prostate DU-145. The settings on record: Homo sapiens, DU-145, 48 h, read-out: cytotoxicity (GI50) prostate DU-145. Format: cell-based.
For a further experiment, the system named is lung HOP-62. The experiment in a line: NCI screen cytotoxicity, lung HOP-62. Conditions: Homo sapiens, HOP-62, 48 h, read-out: cytotoxicity (GI50) lung HOP-62. Format: cell-based.
For another experiment, the system named is melanoma UACC-62. Description: NCI screen cytotoxicity, melanoma UACC-62. It counts as cell-based. Conditions: Homo sapiens, UACC-62, 48 h, read-out: cytotoxicity (GI50) melanoma UACC-62.
Another experiment has as its system colon HCT-116. Description: NCI screen cytotoxicity, colon HCT-116. It counts as cell-based. Conditions: Homo sapiens, HCT-116, 48 h, read-out: cytotoxicity (GI50) colon HCT-116.
The next experiment has as its system SV40 DNA. Description: DNA unwinding assay. Format: biochemical. Conditions: for ability to unwind/intercalate into free DNA: range of tested concentrations 1-100 μM.
Experiment [1] deals with all human cancer cell lines successfully tested. The experiment in a line: NCI screen, mean graph midpoint. Format: cell-based. Conditions: 48 h, read-out: cytotoxicity (GI50) MGM.
Another experiment addresses T1, human recombinant Top1 (Homo sapiens, UniProt P11387).
T1 sequence (P11387 1-765): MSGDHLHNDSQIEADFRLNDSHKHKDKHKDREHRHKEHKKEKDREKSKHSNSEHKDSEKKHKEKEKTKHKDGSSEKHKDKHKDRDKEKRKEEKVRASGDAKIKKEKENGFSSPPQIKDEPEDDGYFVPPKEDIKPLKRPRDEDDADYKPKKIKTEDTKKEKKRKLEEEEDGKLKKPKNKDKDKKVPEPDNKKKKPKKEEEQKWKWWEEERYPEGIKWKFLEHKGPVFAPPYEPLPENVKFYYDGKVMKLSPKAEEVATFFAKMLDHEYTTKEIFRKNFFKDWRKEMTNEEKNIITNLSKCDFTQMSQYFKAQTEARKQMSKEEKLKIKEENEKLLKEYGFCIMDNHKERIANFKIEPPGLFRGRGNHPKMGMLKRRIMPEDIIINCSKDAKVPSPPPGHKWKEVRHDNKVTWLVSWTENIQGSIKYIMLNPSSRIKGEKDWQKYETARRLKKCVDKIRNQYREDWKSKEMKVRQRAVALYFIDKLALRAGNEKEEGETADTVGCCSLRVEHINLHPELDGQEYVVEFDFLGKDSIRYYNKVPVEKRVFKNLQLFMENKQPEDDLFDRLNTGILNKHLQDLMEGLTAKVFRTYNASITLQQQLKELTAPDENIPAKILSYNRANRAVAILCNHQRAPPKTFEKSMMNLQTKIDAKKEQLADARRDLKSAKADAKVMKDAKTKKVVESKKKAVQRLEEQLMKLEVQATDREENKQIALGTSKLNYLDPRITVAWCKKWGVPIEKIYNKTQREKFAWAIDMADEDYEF
The experiment in a line: Top1-mediated DNA cleavage assay. Format: biochemical. Conditions: for Top1 cleavage: semiquantitative, relative Top1 inhibitory potency vs compounds 1 and 2, 117-bp DNA fragment; for concentration dependence of DNA cleavage band intensity: 0.1-100 μM, side-by-side comparison (Figure 4).

One may read the GI50 as the concentration at which growth is held to half of that of the control.

Where a name gives a salt, the structure may show the parent alone.

Take `CC[C@@]1(O)C(=O)OCc2c1cc1n(c2=O)Cc2cc3ccccc3nc2-1` [Compound 1, camptothecin]: the GI50 in the experiment on renal SN12C amounted to 20 nM; in the experiment with prostate DU-145, 10 nM; in the experiment with lung HOP-62, 10 nM; in the experiment with melanoma UACC-62, 0.01 µM; in the experiment with colon HCT-116, 0.03 µM.

Consider `O=C1c2cccnc2-c2[nH]c(=O)c3cc([N+](=O)[O-])ccc3c21` [Compound 17, 7-Aza-5,6-dihydro-3-nitro-5,11-dioxo-11H-indeno[1,2-c]isoquinoline], for which the “ability to unwind/intercalate into free DNA” value with SV40 DNA was “allow intercalation into DNA in the absence of Top1”.

`CN(C)CCCn1c2c(c3ccccc3c1=O)C(=O)c1cccnc1-2` [Compound 18, 7-Aza-5,6-dihydro-6-(3-dimethylaminopropyl)-5,11-dioxo-11H-indeno[1,2-c]isoquinoline Hydrochloride]: in experiment [1], the GI50 worked out at 1780 nM. Further, at human recombinant Top1, the Top1 cleavage result was “+++”.

For `COc1cc2c3c(n(CCCN(C)C)c(=O)c2cc1OC)-c1ncccc1C3=O` [Compound 19, 7-Aza-5,6-dihydro-6-(3-dimethylaminopropyl)-2,3-dimethoxy-5,11-dioxo-11H-indeno[1,2-c]isoquinoline Hydrochloride], in experiment [1], the GI50 amounted to 4500 nM. The Top1 cleavage result on human recombinant Top1 was “+++”. In addition, the “inhibition of Top1-mediated DNA relaxation” value in the experiment with SV40 DNA (at highest tested concentration, 100 μM) is on record as “completely inhibits the Top1-mediated DNA relaxation”.

Consider `CN(C)CCCn1c2c(c3ccc([N+](=O)[O-])cc3c1=O)C(=O)c1cccnc1-2` [Compound 20, 7-Aza-5,6-dihydro-6-(3-dimethylaminopropyl)-3-nitro-5,11-dioxo-11H-indeno[1,2-c]isoquinoline Hydrochloride], for which the GI50 in experiment [1] was found to be 1860 nM.

With `O=C1c2cccnc2-c2c1c1ccccc1c(=O)n2CCCN1CCOCC1` [Compound 21, 7-Aza-5,6-dihydro-6-(3-morpholinopropyl)-5,11-dioxo-11H-indeno[1,2-c]isoquinoline Hydrochloride], the GI50 in experiment [1] is 15500 nM.

In the case of `COc1cc2c3c(n(CCCN4CCOCC4)c(=O)c2cc1OC)-c1ncccc1C3=O` [Compound 22, 7-Aza-5,6-dihydro-6-(3-morpholinopropyl)-2,3-dimethoxy-5,11-dioxo-11H-indeno[1,2-c]isoquinoline Hydrochloride], at human recombinant Top1, the “concentration dependence of DNA cleavage band intensity” value (from here on “concentration dependence”) was “concentration-dependent increase of intensity of DNA cleavage bands” and the Top1 cleavage entry is listed as “++”. The “ability to unwind/intercalate into free DNA” value with SV40 DNA was “inability to unwind/intercalate into DNA”.

`O=C1c2cccnc2-c2c1c1ccc([N+](=O)[O-])cc1c(=O)n2CCCN1CCOCC1` [Compound 23, 7-Aza-5,6-dihydro-6-(3-morpholinopropyl)-3-nitro-5,11-dioxo-11H-indeno[1,2-c]isoquinoline Hydrochloride]: the Top1 cleavage result on human recombinant Top1 is “+++”.

For `O=C1c2cccnc2-c2c1c1ccccc1c(=O)n2CCCn1ccnc1` [Compound 28, 7-Aza-5,6-dihydro-6-(3-(1H-imidazol-1-yl)propyl)-5,11-dioxo-11H-indeno[1,2-c]isoquinoline], the Top1 cleavage result on human recombinant Top1 is on record as “++”.

In the case of `COc1cc2c3c(n(CCCn4ccnc4)c(=O)c2cc1OC)-c1ncccc1C3=O` [Compound 29, 7-Aza-5,6-dihydro-6-(3-(1H-imidazol-1-yl)propyl)-2,3-dimethoxy-5,11-dioxo-11H-indeno[1,2-c]isoquinoline], at human recombinant Top1, the “concentration dependence” value is reported as “concentration-dependent increase of intensity of DNA cleavage bands” and the Top1 cleavage entry was “++”.

Regarding `O=C1c2cccnc2-c2c1c1ccccc1c(=O)n2CCCNCCO` [Compound 30, 7-Aza-5,6-dihydro-6-(3-(2-hydroxyethylamino)propyl)-5,11-dioxo-11H-indeno[1,2-c]isoquinoline Hydrochloride], the GI50 in experiment [1] was found to be 1290 nM. Further, the Top1 cleavage entry at human recombinant Top1 is on record as “+”.

On to `COc1cc2c3c(n(CCCNCCO)c(=O)c2cc1OC)-c1ncccc1C3=O` [Compound 31, 7-Aza-5,6-dihydro-6-(3-(2-hydroxyethylamino)propyl)-2,3-dimethoxy-5,11-dioxo-11H-indeno[1,2-c]isoquinoline Hydrochloride], for which, in experiment [1], the GI50 came to 290 nM. In addition, the “concentration dependence” value at human recombinant Top1 is “behave similarly to 19”.

On to `COc1cc2c3c(n(CCCN)c(=O)c2cc1OC)-c1ncccc1C3=O` [Compound 32, 7-Aza-5,6-dihydro-6-(3-aminopropyl)-2,3-dimethoxy-5,11-dioxo-11H-indeno[1,2-c]isoquinoline Hydrochloride], for which the GI50 in experiment [1] was 2090 nM. Further, the “concentration dependence” value on human recombinant Top1 is recorded as “behave similarly to 19”.

For `CN(C)CCCn1c2c(c3ccccc3c1=O)C(=O)c1ccccc1-2` [Compound 33, reference compound], the Top1 cleavage entry on human recombinant Top1 is given as “+++”.

With `CN(C)CCCn1c2c(c3ccc([N+](=O)[O-])cc3c1=O)C(=O)c1ccccc1-2` [Compound 35], the GI50 in experiment [1] came out at 9770 nM; in the experiment on renal SN12C it was 4170 nM; in the experiment with melanoma UACC-62 it was 7.08 µM; in the experiment on colon HCT-116, 6.46 µM. Moreover, at human recombinant Top1, the Top1 cleavage entry is “+++”.
